From PMC9741287, “Cytotoxic and Luminescent Properties of Novel Organotin Complexes with Chelating Antioxidant Ligand” (Molecules, 2022)

Legend:
HepG2 cells = assay: MTT test with HepG2 cells, 48 h; format: cell-based; conditions: HepG2, 48 h
Method: (§1) Cytotoxic properties of 1 are unusual, so an additional cytotoxicity assay with HepG2 cells was carried out and CC50 values were estimated (Figure 5).
(§2) The fact that ligand 1 itself has cytotoxic properties can be interpreted as the existence of a pharmacological target, specific to 1. The detection of potential targets for ligand 1 involves research on cell cycle influence and many other assays, and will be carried out in future studies.
(§3) Figure 5 An effect of compound 1 at concentrations of 0.001–100 µM on the metabolic activity (viability) of HepG2 cells during 48 h incubation in the MTT test.

[1] = MTT test with HepG2 cells, 48 h; format: cell-based; conditions: human, HepG2 cells; HepG2, 48 h incubation, MTT
Method: as §1, §2, §3

[2] = Hydrolysis stability at different pH (UV-vis); format: physicochemical; conditions: phosphate buffer, pH = 5 and pH = 7; absorbance 250–500 nm
Method: Investigations of potential drug pharmacokinetics are an important part of the evaluation of its potential efficacy and applicability. On the base level, this can be studied in vitro as a hydrolysis stability assay at different pH levels. […] The stability of compounds was estimated as an optical density drop at λ = 250–500 nm at pH = 5 and pH = 7 (Figure 3 and Figure 4).
The stability of synthesized compounds was estimated spectrophotometrically. To 1.5 mL of either phosphate buffer with pH = 5.0 or phosphate buffer with pH = 7.4, 300 µL of 2 mM test solution in MeOH was added. Then adsorption spectra at λ = 250–500 nm were recorded for 20 h. Graphs were built using OriginPro 2019b.

## CC(C)(C)c1cc(C(=O)N/N=C/c2ccccc2O)cc(C(C)(C)C)c1O [Compound 1, Di-tert-butyl-4-hydroxy-N′-(2-hydroxybenzylidene)-benzohydrazine]
HepG2 cells; 3 µM
  Suppression of vital activity relative to the control: 25.8 ± 4.0%
HepG2 cells; MTT
  Minimal concentration that significantly suppresses vital activity: 3 µM
[1]
  CC50 at 48 h: 12.4 ± 2 µM
[2]
  Time after which decomposition (hydrolysis) is seen: approximately 1 h
other
  melting point: 265 to 269 °C
